Laboratory results as given in PubChem BioAssay AID1963972 (Molecular Pharmacology Branch, DTP, NCI, 2024).
pIC50: −log10 of the molar value.

System: 945468-187-T-J2-PDC spheroids viability
Assay: Anticancer human tumor 945468-187-T-J2-PDC patient-derived rectal carcinoma cell line growth inhibition [PI3K]
Settings: spheroids with HUVEC and MSC; for pIC50: curve of first compound; for viability, T/C: stronger effect = lower value; active = viability on the fitted dose curve at most 10% of control; inactive = the rest
Procedure, shortened: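 Multi-cell spheroids combine tumor cells with HUVEC and human MSCs, treated with targeted agents alone or with inavolisib, alpelisib, duvelisib or copanlisib. Concentrations fall in half-log steps from at or near clinical Cmax, or from 10 microM where Cmax is unknown; viability read-out.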

[1] = second compound 0.0316 µM, first compound 0.0316 µM
[2] = second compound 0.0316 µM, first compound 0.1 µM
[3] = second compound 0.0316 µM, first compound 0.316 µM
[4] = second compound 0.0316 µM, first compound 1 µM
[5] = second compound 0.0316 µM, first compound 3.16 µM
[6] = second compound 0.0316 µM, first compound 10 µM
[7] = second compound 0.1 µM, first compound 0.0316 µM
[8] = second compound 0.1 µM, first compound 0.1 µM
[9] = second compound 0.1 µM, first compound 0.316 µM
[10] = second compound 0.1 µM, first compound 1 µM
[11] = second compound 0.1 µM, first compound 3.16 µM
[12] = second compound 0.1 µM, first compound 10 µM
[13] = second compound 0.316 µM, first compound 0.0316 µM
[14] = second compound 0.316 µM, first compound 0.1 µM
[15] = second compound 0.316 µM, first compound 0.316 µM
[16] = second compound 0.316 µM, first compound 1 µM
[17] = second compound 0.316 µM, first compound 3.16 µM
[18] = second compound 0.316 µM, first compound 10 µM
[19] = second compound 1 µM, first compound 0.0316 µM
[20] = second compound 1 µM, first compound 0.1 µM
[21] = second compound 1 µM, first compound 0.316 µM
[22] = second compound 1 µM, first compound 1 µM
[23] = second compound 1 µM, first compound 3.16 µM
[24] = second compound 1 µM, first compound 10 µM
[25] = second compound 3.16 µM, first compound 0.0316 µM
[26] = second compound 3.16 µM, first compound 0.1 µM
[27] = second compound 3.16 µM, first compound 0.316 µM
[28] = second compound 3.16 µM, first compound 1 µM
[29] = second compound 3.16 µM, first compound 3.16 µM
[30] = second compound 3.16 µM, first compound 10 µM
[31] = second compound 10 µM, first compound 0.0316 µM
[32] = second compound 10 µM, first compound 0.1 µM
[33] = second compound 10 µM, first compound 0.316 µM
[34] = second compound 10 µM, first compound 1 µM
[35] = second compound 10 µM, first compound 3.16 µM
[36] = second compound 10 µM, first compound 10 µM
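Note: spheroids exposed to compounds for seven days before reading.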

C#Cc1c(F)ccc2cc(O)cc(-c3ncc4c(N5CC6CCC(C5)N6)nc(OCC56CCCN5CC(F)C6)nc4c3F)c12 (stereo unspecified) + Cc1nc(NC(=O)N2CCCC2C(N)=O)sc1-c1ccnc(C(C)(C)C(F)(F)F)c1
inactive: viability, T/C [1] 110% | viability, T/C [2] 110% | viability, T/C [3] 105% | viability, T/C [4] 103% | viability, T/C [5] 135% | viability, T/C [6] 107% | viability, T/C [7] 125% | viability, T/C [8] 114% | viability, T/C [9] 102% | viability, T/C [10] 107% | viability, T/C [11] 136% | viability, T/C [12] 105% | viability, T/C [13] 103% | viability, T/C [14] 100% | viability, T/C [15] 116% | viability, T/C [16] 102% | viability, T/C [17] 164% | viability, T/C [18] 99.1% | viability, T/C [19] 125% | viability, T/C [20] 93.6% | viability, T/C [21] 109% | viability, T/C [22] 116% | viability, T/C [23] 106% | viability, T/C [24] 90.5% | viability, T/C [25] 85.6% | viability, T/C [26] 85.8% | viability, T/C [27] 95.4% | viability, T/C [28] 94.1% | viability, T/C [29] 94% | viability, T/C [30] 117% | viability, T/C [31] 85.5% | viability, T/C [32] 73.2% | viability, T/C [33] 99% | viability, T/C [34] 92.6% | viability, T/C [35] 77% | viability, T/C [36] 80.9%
< 5.00: pIC50 (second compound 0.0316 µM) | pIC50 (second compound 0.1 µM) | pIC50 (second compound 0.316 µM) | pIC50 (second compound 1 µM) | pIC50 (second compound 3.16 µM) | pIC50 (second compound 10 µM)

C=CC(=O)N1CCN(c2nc(=O)n(-c3c(C)ccnc3C(C)C)c3nc(-c4c(O)cccc4F)c(F)cc23)C(C)C1 (stereo unspecified) + Cc1nc(NC(=O)N2CCCC2C(N)=O)sc1-c1ccnc(C(C)(C)C(F)(F)F)c1
< 5.00: pIC50 (second compound 0.0316 µM) | pIC50 (second compound 0.1 µM) | pIC50 (second compound 0.316 µM) | pIC50 (second compound 1 µM) | pIC50 (second compound 3.16 µM) | pIC50 (second compound 10 µM)
inactive: viability, T/C [1] 102% | viability, T/C [2] 79.7% | viability, T/C [3] 96.2% | viability, T/C [4] 90.1% | viability, T/C [5] 128% | viability, T/C [6] 113% | viability, T/C [7] 117% | viability, T/C [8] 121% | viability, T/C [9] 97.9% | viability, T/C [10] 97.5% | viability, T/C [11] 95% | viability, T/C [12] 106% | viability, T/C [13] 117% | viability, T/C [14] 156% | viability, T/C [15] 102% | viability, T/C [16] 106% | viability, T/C [17] 101% | viability, T/C [18] 96% | viability, T/C [19] 102% | viability, T/C [20] 111% | viability, T/C [21] 100% | viability, T/C [22] 91.6% | viability, T/C [23] 95% | viability, T/C [24] 104% | viability, T/C [25] 91.2% | viability, T/C [26] 107% | viability, T/C [27] 83.8% | viability, T/C [28] 81.9% | viability, T/C [29] 82.8% | viability, T/C [30] 96.2% | viability, T/C [31] 70.4% | viability, T/C [32] 87.8% | viability, T/C [33] 81.7% | viability, T/C [34] 73.7% | viability, T/C [35] 87.3% | viability, T/C [36] 92.9%

CC(Cn1ccc(-c2ccc(C#N)c(Cl)c2)n1)NC(=O)c1cc(C(C)O)[nH]n1 (stereo unspecified) + Cc1nc(NC(=O)N2CCCC2C(N)=O)sc1-c1ccnc(C(C)(C)C(F)(F)F)c1
< 5.00: pIC50 (second compound 0.0316 µM) | pIC50 (second compound 0.1 µM) | pIC50 (second compound 0.316 µM) | pIC50 (second compound 1 µM) | pIC50 (second compound 3.16 µM) | pIC50 (second compound 10 µM)
inactive: viability, T/C [1] 118% | viability, T/C [2] 94.1% | viability, T/C [3] 115% | viability, T/C [4] 96.3% | viability, T/C [5] 90.7% | viability, T/C [6] 82.5% | viability, T/C [7] 90.7% | viability, T/C [8] 81% | viability, T/C [9] 90.8% | viability, T/C [10] 100% | viability, T/C [11] 104% | viability, T/C [12] 82.1% | viability, T/C [13] 100% | viability, T/C [14] 95.6% | viability, T/C [15] 109% | viability, T/C [16] 80% | viability, T/C [17] 89.6% | viability, T/C [18] 83.4% | viability, T/C [19] 95.4% | viability, T/C [20] 84.9% | viability, T/C [21] 79.4% | viability, T/C [22] 101% | viability, T/C [23] 79.3% | viability, T/C [24] 84.7% | viability, T/C [25] 81% | viability, T/C [26] 84.2% | viability, T/C [27] 78.4% | viability, T/C [28] 83.5% | viability, T/C [29] 71.7% | viability, T/C [30] 74.9% | viability, T/C [31] 76.9% | viability, T/C [32] 76.3% | viability, T/C [33] 73.3% | viability, T/C [34] 68% | viability, T/C [35] 69% | viability, T/C [36] 61.5%
